Measured values taken from ChEMBL document CHEMBL1201862, “PubChem BioAssay data set” (2004).
Calls of active or inactive are those of the source.

Tests used:
[1] = inhibitors of clade B AD8 Env fusion, dose response, cell-based, cherry-pick (AID 652062); type: functional;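 note: luciferase signal from cell-cell fusion driven by HIV-1 clade B AD8 Env; potency is for inhibitors of fusion seen as a drop in luminescence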
[2] = ZM109 Env clade C HIV-1 fusion inhibitors, dose response, HeLa effector, CEM target cells, luciferase, cherry-pick (AID 652058); type: functional, cell-based
[3] = inhibitors of HIV Env-driven cell fusion, dose response, cherry-pick (AID 652057); type: functional, cell-based
[4] = off-target signal loss in HeLa-CEM21 co-culture – HeLa F-luc CTL cells, cherry-picked, counter-screen for HIV-1 Env fusion inhibitor project, dose response (AID 652040); type: functional, cell-based;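 note: potency for signal decrease marking cytotoxic or nonspecific inhibition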
[5] = target: T1, Calpain-2 catalytic subunit (Sus scrofa, UniProt P43367); test: pig calpain II inhibitor potency, dose response, biochemical, fluorogenic peptide substrate (AID 1420); type: functional
T1 sequence (P43367 whole entry): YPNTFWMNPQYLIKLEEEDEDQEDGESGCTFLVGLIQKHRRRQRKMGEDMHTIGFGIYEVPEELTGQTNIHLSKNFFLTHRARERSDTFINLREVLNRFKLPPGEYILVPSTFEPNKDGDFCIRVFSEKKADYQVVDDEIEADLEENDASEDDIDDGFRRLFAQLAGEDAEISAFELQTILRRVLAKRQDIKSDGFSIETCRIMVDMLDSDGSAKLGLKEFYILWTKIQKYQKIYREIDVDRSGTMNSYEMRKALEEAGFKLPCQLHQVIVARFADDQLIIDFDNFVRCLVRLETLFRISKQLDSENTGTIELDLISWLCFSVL

[6] = target: T2, Polyadenylate-binding protein 1 (Homo sapiens, UniProt P11940); test: PABP1 MLLE–PAM2 binding inhibitor potency, dose response, biochemical, fluorescence polarization, FITC-PAM2 peptide (AID 602259); type: functional; conditions: read-out: IC50_Mean
[7] = target: T2, Polyadenylate-binding protein 1; test: PABP1 MLLE–PAM2 interaction inhibitors, dose response, miRNA deadenylation inhibitor project, biochemical, fluorescence polarization, Cy5-PAM2 peptide, secondary (AID 602260); type: functional; conditions: read-out: IC50_Mean
[8] = target: T3, Protein skinhead-1 (Caenorhabditis elegans, UniProt P34707); type: functional
T3 sequence (P34707 whole entry): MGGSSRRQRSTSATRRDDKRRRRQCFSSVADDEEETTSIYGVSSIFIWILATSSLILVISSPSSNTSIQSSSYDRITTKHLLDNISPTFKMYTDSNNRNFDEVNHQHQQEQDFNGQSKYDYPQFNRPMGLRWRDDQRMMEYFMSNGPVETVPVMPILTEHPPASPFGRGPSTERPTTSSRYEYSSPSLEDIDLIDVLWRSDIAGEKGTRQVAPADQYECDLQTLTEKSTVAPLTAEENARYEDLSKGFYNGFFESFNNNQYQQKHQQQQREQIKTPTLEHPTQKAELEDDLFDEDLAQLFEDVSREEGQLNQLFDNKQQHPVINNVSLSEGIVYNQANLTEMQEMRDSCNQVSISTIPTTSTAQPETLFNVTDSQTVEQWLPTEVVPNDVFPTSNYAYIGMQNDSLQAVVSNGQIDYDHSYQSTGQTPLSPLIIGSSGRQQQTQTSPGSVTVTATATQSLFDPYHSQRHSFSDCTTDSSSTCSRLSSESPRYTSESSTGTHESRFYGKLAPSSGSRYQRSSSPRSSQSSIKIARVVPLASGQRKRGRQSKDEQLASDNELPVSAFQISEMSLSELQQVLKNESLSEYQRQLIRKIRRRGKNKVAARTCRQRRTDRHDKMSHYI

[9] = target: Eukaryotic translation initiation factor 4E (Mus musculus, UniProt P63073); test: eIF4E–eIF4G protein interaction inhibitors, dose response, biochemical, TR-FRET (AID 855); type: functional;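 note: potency for disrupting eIF4E binding to eIF4GI seen as loss of FRET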
[10] = target: Nonstructural protein 1 (Influenza A virus, UniProt Q194T2); type: functional, Influenza A virus (A/California/07/2009(H1N1))
[11] = target: T4, Rac GTPase-activating protein 1 (Homo sapiens, UniProt Q9H0H5); test: MgcRacGAP GTPase-activating activity inhibitors, confirmation, biochemical, ADP Hunter fluorescence, primary and confirmatory (AID 624330); type: functional
T4 sequence (Q9H0H5 whole entry): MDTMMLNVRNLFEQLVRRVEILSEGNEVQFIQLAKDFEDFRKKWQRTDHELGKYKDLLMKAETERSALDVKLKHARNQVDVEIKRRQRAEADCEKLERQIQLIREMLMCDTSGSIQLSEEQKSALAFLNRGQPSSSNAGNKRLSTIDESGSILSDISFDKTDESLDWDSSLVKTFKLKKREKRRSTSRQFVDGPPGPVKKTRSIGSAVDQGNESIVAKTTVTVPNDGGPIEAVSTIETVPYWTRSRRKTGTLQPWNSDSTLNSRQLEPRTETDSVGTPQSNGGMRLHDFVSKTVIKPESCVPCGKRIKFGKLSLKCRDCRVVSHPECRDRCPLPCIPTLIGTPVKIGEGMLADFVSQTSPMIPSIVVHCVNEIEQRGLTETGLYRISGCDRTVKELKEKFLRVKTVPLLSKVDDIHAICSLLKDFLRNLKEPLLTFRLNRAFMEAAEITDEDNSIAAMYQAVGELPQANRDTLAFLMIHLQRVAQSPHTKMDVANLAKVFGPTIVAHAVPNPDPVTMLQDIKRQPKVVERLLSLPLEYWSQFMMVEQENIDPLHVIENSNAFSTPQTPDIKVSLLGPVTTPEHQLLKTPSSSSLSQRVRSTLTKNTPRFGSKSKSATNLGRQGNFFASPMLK

[12] = cytotoxicity toward NIH3T3 fibroblasts, dose response, counter-screen, cell-based, ATP luminescence, mouse fibroblasts (AID 2010); type: functional;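 note: cells exposed to compound for about 90 hours before reading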
[13] = inhibitors of intracellular T. cruzi replication, confirmation, NIH3T3 host cells, beta-gal luminescence (AID 2044); type: functional, cell-based;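 note: intracellular parasites grown in NIH/3T3 mouse fibroblasts as host cells; luminescent beta-galactosidase reporter signal from transgenic T. cruzi replicating inside host cells; inhibitors lower the luminescence signal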
[14] = target: T5, RNA-binding protein pos-1 (Caenorhabditis elegans, UniProt G5EF15); test: inhibitors of POS-1/mex-3 RNA binding, dose response, biochemical, fluorescence polarization (AID 1964);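 note: purified POS-1 fused to maltose binding protein made in E. coli; potency of compounds blocking POS-1 binding to fluorescent RNA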
T5 sequence (G5EF15 whole entry): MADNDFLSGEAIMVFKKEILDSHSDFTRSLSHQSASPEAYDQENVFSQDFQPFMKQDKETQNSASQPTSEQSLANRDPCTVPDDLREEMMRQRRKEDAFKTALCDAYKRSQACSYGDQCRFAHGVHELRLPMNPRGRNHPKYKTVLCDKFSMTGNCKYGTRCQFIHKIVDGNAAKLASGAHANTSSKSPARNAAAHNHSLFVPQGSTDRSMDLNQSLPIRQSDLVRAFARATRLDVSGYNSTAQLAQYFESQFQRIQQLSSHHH

[15] = target: T6, Zinc finger protein mex-5 (Caenorhabditis elegans, UniProt Q9XUB2); test: MEX-5/TCR-2 RNA interaction inhibitors, dose response, biochemical, C. elegans, fluorescence polarization (AID 1960)
T6 sequence (Q9XUB2 whole entry): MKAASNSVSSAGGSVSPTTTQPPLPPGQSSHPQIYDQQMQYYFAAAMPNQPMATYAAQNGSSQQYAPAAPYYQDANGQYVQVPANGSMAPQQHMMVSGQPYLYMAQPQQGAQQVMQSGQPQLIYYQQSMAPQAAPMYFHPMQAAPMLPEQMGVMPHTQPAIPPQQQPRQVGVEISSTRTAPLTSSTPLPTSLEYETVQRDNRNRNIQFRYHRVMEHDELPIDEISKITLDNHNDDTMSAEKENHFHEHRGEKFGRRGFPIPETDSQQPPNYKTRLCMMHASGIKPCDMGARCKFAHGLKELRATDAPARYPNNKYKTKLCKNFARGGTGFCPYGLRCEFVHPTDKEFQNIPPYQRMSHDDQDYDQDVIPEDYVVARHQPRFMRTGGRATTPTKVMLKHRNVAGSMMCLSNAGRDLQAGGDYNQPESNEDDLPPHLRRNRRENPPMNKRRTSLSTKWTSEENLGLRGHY

[16] = Luminescence Cell-Based Dose Retest to Confirm Inhibitors of Cancer Stem Cells. [Related pubchem assays (depositor defined):AID2717, AID2721]; type: functional; conditions: Homo sapiens
[17] = target: Induced myeloid leukemia cell differentiation protein Mcl-1 (Homo sapiens, UniProt Q07820); type: functional
[18] = C. albicans growth with fluconazole, confirmation, fluorescence, retest (AID 2467); type: functional, cell-based
[19] = NIH-3T3 fibroblast cytotoxicity, dose response, cytotoxicity control, cell-based, fluorescence, Alamar Blue, secondary assay (AID 2327); type: functional;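 note: NIH-3T3 mouse fibroblasts cultured with fluconazole at 8 µg/mL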

T2 sequence (P11940 whole entry): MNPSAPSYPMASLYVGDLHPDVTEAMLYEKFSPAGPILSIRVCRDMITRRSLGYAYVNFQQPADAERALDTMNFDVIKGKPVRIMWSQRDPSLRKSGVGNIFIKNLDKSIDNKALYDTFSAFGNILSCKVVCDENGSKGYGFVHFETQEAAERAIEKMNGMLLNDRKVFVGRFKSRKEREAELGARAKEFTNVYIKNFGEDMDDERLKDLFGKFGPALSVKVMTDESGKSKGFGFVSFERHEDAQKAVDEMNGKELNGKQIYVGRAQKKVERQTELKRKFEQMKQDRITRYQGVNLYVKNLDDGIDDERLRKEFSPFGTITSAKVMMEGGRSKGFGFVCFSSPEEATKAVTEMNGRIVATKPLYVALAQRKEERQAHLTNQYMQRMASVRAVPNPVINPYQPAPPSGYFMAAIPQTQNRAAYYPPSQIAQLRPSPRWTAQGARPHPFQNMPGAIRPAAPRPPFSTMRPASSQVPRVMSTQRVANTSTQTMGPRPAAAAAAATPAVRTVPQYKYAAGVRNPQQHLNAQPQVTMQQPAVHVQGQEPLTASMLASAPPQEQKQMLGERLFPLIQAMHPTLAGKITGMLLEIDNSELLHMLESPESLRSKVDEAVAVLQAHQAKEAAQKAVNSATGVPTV
Eukaryotic translation initiation factor 4E, sequence (P63073 whole entry): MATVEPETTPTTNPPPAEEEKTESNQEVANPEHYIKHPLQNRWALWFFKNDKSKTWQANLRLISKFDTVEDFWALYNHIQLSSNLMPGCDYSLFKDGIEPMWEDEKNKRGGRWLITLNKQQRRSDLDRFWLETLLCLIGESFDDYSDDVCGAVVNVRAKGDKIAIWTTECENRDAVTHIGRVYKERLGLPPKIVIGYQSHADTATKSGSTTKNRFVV
Induced myeloid leukemia cell differentiation protein Mcl-1, sequence (Q07820 whole entry): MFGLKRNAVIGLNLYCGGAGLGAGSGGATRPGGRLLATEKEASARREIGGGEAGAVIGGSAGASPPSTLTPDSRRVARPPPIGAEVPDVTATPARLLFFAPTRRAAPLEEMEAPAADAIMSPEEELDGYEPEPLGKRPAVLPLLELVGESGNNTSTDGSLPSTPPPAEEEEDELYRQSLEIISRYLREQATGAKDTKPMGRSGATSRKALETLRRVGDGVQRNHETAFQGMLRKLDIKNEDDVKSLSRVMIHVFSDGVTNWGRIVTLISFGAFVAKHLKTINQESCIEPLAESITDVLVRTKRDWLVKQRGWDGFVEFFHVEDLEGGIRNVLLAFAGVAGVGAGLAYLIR
Nonstructural protein 1, sequence (Q194T2 whole entry): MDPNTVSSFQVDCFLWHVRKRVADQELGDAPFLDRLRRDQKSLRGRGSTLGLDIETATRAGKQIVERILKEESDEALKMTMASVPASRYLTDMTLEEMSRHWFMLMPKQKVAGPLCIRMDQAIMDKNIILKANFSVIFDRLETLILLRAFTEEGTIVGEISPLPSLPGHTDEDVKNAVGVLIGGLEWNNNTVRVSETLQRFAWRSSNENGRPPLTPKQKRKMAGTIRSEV

In the case of `CN(C)C(=O)CCC(=O)N1CCCC(C(=O)c2ccc3c4c(cccc24)CC3)C1` (stereo not drawn), the AC50 [1] is reported as 2.71 µM (active), the AC50 [2] is reported as 0.53 µM (active) and the AC50 [3] is reported as 0.498 µM (active). For the same compound, the AC50 [4] was 0.753 µM (active).
For `O=C(Cn1nc(-c2ccc3c(c2)OCCO3)ccc1=O)Nc1cccc(NC(=O)c2ccccn2)c1`, the IC50 [5] was > 50 µM (not active).
In the case of `CN=C(S)SCCOc1ccccc1`, the IC50 [6] is reported as > 66 µM (inactive) and the IC50 [7] is reported as > 66 µM (inactive).
For `Cc1cccc(NC(=O)NCc2ccc3[nH]c(C)cc3c2)c1`, the IC50 [5] was 7.26 µM (not active).
In the case of `Cc1cc2cc(CNC(=O)Nc3ccccc3)ccc2n1C`, the IC50 [6] is reported as > 66 µM (inactive), the IC50 [8] is reported as > 100 µM (inactive) and the IC50 [7] is reported as > 66 µM (inactive).
For `CCCC(=O)n1nc(NCc2ccc(OC)cc2)nc1NCc1ccc(OC)cc1`, the IC50 [5] was < 0.4 µM (not active).
In the case of `CCOC(=S)SCc1cn2cccc(C)c2n1`, the IC50 [6] is reported as > 66 µM (inactive) and the IC50 [7] is reported as > 66 µM (inactive).
For `COc1ccc2c(c1)OC[C@H]1[C@H]2N2C(=O)CN(Cc3ccc(C)cc3)C(=O)[C@@]2(C)[C@H]1c1ccccc1`, the AC50 [1] was 5.83 µM (active), the AC50 [2] was 15.5 µM (active) and the AC50 [3] was 7.77 µM (active). The AC50 [4] was 26.9 µM (active).
For `CC1CCCCN1C(=O)Cn1nnc(-c2cccnc2)n1` (stereo not drawn), the IC50 [6] was 17 µM (active) and the IC50 [7] was > 66 µM (inactive).
In the case of `CC1=CC2=NC(=O)CC(C)(C(=O)N(CC(=O)NC3CCCC3)c3cc(C)cc(C)c3)N2C=C1` (stereo not drawn), the IC50 [9] is reported as 50 µM (inactive).
In the case of `CC1CC1C(=O)OCC(=O)Nc1ccccc1Oc1ccccc1` (stereo not drawn), the IC50 [5] is reported as 33.3 µM (not active).
With `CC(=O)N1CCN(c2ccc(NC(=S)NC(=O)COc3ccc(C(C)(C)C)cc3)cc2)CC1` the IC50 [6] was > 66 µM (inactive) and the IC50 [7] was > 66 µM (inactive).
With `Nc1ccc(N(c2ccccc2)c2ccc(N)cc2)cc1` the IC50 [10] was 9.26 µM (active), the IC50 [11] was 8.57 µM (active) and the IC50 [9] was > 64 µM (inactive). For the same compound, the EC50 [12] was > 60 µM (not active) and the EC50 [13] was 1.81 µM (active).
In the case of `CC1CCN(c2nc3ccccc3n2CC(=O)c2ccccc2)CC1`, the IC50 [5] is reported as > 50 µM (not active).
For `COc1ccc(C(=S)N2CCC(C(N)=O)CC2)cc1Br`, the IC50 [6] was > 66 µM (inactive) and the IC50 [7] was > 66 µM (inactive).
For `COc1ccc(CCNC(=O)c2nn(C)c3c2CS(=O)(=O)c2ccccc2-3)cc1OC`, the EC50 [14] was > 300 µM (not active) and the EC50 [15] was > 300 µM (not active).
In the case of `CN1C(=O)C(=Cc2ccc(SC3CCCCC3)o2)C(=O)N(C)C1=O`, the EC50 [14] is reported as > 300 µM (not active) and the EC50 [15] is reported as > 300 µM (not active).
With `CCOc1cc(C(=O)Nc2ccc3c4c(cccc24)C(=O)N3CC)cc(OCC)c1OCC` the IC50 [9] was > 64 µM (inactive).
In the case of `CCCCCCSc1nnc(-c2cnn(-c3ccccc3)c2-n2cccc2)n1C`, the IC50 [5] is reported as 7.59 µM (not active).
With `Cc1cc(C)n2nc(C(=O)NCc3ccccc3)cc2n1` the IC50 [9] was > 64 µM (inactive).
In the case of `COc1cccc(C2C(C#N)=C(N)OC3=C2C(=O)CCC3)c1OC(=O)c1ccco1` (stereo not drawn), the EC50 [14] is reported as > 300 µM (not active) and the EC50 [15] is reported as > 300 µM (not active).
In the case of `Cc1cc([N+](=O)[O-])ccc1-c1ccc(/C=N/NC(=O)c2ccc(Br)o2)o1`, the AC50 [16] is reported as 2.35 µM (active), the EC50 [14] is reported as 19.7 µM (active) and the EC50 [15] is reported as 5.51 µM (active).
For `O=C(O)c1ccccc1N/N=C/c1c(Sc2nnnn2-c2ccccc2)nc2ccccn2c1=O`, the EC50 [14] was > 300 µM (not active), the EC50 [15] was 116 µM (active) and the IC50 [17] was 2.58 µM (active).
In the case of `CCN(CC)c1ccc(/N=C/c2c(C)[nH]c3ccccc23)cc1`, the IC50 [10] is reported as 29.3 µM (active), the IC50 [11] is reported as 43.7 µM (active) and the IC50 [9] is reported as > 64 µM (inactive).
In the case of `O=C(N/N=C/c1sc(N2CCOCC2)nc1-c1ccccc1)c1cccc(S(=O)(=O)N2CCOCC2)c1`, the AC50 [1] is reported as 3.47 µM (active), the EC50 [18] is reported as > 38 µM (not active) and the AC50 [2] is reported as 4.42 µM (active). For the same compound, the EC50 [19] was > 150 µM (inactive), the AC50 [3] was 4.02 µM (active) and the AC50 [4] was 6.84 µM (active).
With `N#Cc1c(NC(=O)c2cccc(S(=O)(=O)Nc3ccc(C(=O)O)cc3)c2)sc2c1CCCC2` the IC50 [5] was 13.7 µM (not active) and the IC50 [17] was 6.52 µM (active).
